The text below walks through data of patent publication US20200239530A1, “COMPOUNDS AND METHODS OF MODULATING PROTEIN DEGRADATION” (Vividion Therapeutics, Inc., priority 2017, published 2020).

Holding throughout (type): binding
One experiment deals with T1, Q8ND25 (Homo sapiens, UniProt Q8ND25).
T1 construct: 200 μL of lysate containing 5 mg/ml proteome was treated with 2 μL of 100× compound stock; endogenous in cells
In words: Cysteine liganding, probe competition (Table 2B). The settings on record: one line per cysteine site. From the text:
(§1) The following 96-well sample prep protocol was used for sample preparation.

A further experiment deals with T2, Q8NHG8 (Homo sapiens, UniProt Q8NHG8).
T2 construct: 200 μL of lysate containing 5 mg/ml proteome was treated with 2 μL of 100× compound stock; endogenous in cells
In words: Cysteine liganding, probe competition (Table 2B). To be noted: one line per cysteine site.
From the text: as §1

The target of a further experiment is T3, Q9H0C5 (Homo sapiens, UniProt Q9H0C5).
T3 construct: 200 μL of lysate containing 5 mg/ml proteome was treated with 2 μL of 100× compound stock; endogenous in cells
T3 sequence (Q9H0C5 1-482): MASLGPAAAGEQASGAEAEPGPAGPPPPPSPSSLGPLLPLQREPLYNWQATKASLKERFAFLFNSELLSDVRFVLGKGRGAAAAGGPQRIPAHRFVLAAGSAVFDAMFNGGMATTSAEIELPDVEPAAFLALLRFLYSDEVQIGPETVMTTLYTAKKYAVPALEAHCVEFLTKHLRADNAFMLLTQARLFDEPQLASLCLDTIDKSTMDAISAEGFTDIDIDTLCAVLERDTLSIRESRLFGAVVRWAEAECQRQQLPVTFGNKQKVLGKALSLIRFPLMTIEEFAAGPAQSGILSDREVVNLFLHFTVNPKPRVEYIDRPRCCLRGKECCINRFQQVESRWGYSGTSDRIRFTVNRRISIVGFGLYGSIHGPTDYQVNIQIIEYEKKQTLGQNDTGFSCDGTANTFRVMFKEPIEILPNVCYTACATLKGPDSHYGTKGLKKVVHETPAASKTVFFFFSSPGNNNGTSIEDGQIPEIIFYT
In words: Competitive cysteine profiling, probe competition (Table 2B).
From the text: as §1

The next experiment has as its target T4, Q7Z569 (Homo sapiens, UniProt Q7Z569).
T4 construct: 200 μL of lysate containing 5 mg/ml proteome was treated with 2 μL of 100× compound stock; endogenous in cells
The description is as above.
From the text: as §1

The target of the next experiment is T5, Q9BSF8 (Homo sapiens, UniProt Q9BSF8).
T5 construct: 200 μL of lysate containing 5 mg/ml proteome was treated with 2 μL of 100× compound stock; endogenous in cells
The experiment is described as above.
From the text: as §1

Experiment [1] deals with cysteine residue illustrated in Table 1A or Table 2A (Homo sapiens, UniProt Q13616). In words: Competitive cysteine profiling of cell lysate with desthiobiotin iodoacetamide probe (96-well sample prep). Details: endogenous in cells. To be noted: UniProt Q13616; 100 uM. The procedure:
In some embodiments, the solution sample (e.g., cell sample, cell lysate sample, or comprising isolated proteins) is incubated with a compound of Formula (I) for analysis of protein-probe interactions. In some instances, the solution sample (e.g., cell sample, cell lysate sample, or comprising isolated proteins) is further incubated in the presence of an additional compound probe prior to addition of the compound of Formula (I). […] In such instances, the solution sample is incubated with a probe and a ligand for competitive protein profiling analysis.
as §1
Cells were resuspended in cold PBS on ice and sonicated with a probe sonicator to achieve lysis. 200 μL of lysate containing 5 mg/ml proteome was treated with 2 μL of 100× compound stock in a 2-mL deep-well plate. The treated lysate was subsequently incubate at 25° C. for 1 hr with shaking at 600 rpm. The treated lysate was further incubated with 2 μL of 10 mM desthiobiotin iodoacetamide probe at 25° C. for 1 hr with shaking at 600 rpm. Next, the lysate was further treat with 20 μL of solution of PBS containing 11 mM MgSO4 and 2.5% Turbonuclease stock and incubated at 25° C. for 20 minutes with shaking at 600 rpm. 1.7 mL ice-cold acetone was added to each well and incubated at −20° C. for 2 hr, followed by max speed (4200 rpm) spin for 45 min. […]

The mark [2] stands for this setting: 500 uM, read-out: KB02_500 uM_percent_inhibition.
Setting [3] is: 100 uM, read-out: KB05_100 uM_percent_inhibition.
Where [4] appears, read: 500 uM, read-out: KB05_500 uM_percent_inhibition.

SMILES strings stand for the structures.

T5 sequence (Q9BSF8 whole entry): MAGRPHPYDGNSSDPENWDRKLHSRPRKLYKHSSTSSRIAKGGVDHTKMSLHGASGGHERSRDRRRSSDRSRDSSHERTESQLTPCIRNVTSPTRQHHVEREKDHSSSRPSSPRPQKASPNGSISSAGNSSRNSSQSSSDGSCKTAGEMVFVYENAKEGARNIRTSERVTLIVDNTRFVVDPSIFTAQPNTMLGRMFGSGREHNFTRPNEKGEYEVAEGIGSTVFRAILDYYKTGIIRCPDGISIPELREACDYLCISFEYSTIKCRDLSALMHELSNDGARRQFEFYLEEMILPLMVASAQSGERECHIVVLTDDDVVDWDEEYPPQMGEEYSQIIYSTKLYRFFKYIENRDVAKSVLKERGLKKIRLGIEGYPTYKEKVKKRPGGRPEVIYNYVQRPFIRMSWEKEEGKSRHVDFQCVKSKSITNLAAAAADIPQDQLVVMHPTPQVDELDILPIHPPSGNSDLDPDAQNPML
T2 sequence (Q8NHG8 whole entry): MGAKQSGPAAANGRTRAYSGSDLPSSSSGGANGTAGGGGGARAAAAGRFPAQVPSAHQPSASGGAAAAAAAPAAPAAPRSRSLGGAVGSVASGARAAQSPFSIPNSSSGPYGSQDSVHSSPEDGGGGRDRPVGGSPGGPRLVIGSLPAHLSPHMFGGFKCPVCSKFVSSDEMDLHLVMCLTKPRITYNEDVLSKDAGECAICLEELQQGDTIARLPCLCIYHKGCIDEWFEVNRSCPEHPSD
T4 sequence (Q7Z569 whole entry): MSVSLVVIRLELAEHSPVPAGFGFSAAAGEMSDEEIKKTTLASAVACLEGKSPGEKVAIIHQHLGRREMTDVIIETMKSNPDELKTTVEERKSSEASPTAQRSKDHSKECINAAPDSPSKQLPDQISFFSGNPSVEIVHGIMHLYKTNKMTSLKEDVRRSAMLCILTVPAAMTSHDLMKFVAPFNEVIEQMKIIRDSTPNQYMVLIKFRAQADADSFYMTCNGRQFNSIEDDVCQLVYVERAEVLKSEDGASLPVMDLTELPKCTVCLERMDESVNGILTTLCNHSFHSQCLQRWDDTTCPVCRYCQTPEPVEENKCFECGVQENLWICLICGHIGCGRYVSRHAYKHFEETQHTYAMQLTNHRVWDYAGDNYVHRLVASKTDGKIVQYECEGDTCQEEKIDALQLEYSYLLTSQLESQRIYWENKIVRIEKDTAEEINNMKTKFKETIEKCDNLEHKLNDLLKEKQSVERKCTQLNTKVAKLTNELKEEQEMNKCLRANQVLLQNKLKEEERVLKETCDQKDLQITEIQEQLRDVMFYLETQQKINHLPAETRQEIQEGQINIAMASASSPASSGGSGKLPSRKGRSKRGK
T1 sequence (Q8ND25 whole entry): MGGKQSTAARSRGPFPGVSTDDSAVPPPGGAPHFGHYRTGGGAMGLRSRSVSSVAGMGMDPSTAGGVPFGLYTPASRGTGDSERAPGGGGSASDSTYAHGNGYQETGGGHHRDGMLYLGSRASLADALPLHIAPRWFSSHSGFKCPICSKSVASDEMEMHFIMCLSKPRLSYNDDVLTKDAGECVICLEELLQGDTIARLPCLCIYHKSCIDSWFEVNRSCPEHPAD
Chain of cysteine residue illustrated in Table 1A or Table 2A (Q13616 whole entry): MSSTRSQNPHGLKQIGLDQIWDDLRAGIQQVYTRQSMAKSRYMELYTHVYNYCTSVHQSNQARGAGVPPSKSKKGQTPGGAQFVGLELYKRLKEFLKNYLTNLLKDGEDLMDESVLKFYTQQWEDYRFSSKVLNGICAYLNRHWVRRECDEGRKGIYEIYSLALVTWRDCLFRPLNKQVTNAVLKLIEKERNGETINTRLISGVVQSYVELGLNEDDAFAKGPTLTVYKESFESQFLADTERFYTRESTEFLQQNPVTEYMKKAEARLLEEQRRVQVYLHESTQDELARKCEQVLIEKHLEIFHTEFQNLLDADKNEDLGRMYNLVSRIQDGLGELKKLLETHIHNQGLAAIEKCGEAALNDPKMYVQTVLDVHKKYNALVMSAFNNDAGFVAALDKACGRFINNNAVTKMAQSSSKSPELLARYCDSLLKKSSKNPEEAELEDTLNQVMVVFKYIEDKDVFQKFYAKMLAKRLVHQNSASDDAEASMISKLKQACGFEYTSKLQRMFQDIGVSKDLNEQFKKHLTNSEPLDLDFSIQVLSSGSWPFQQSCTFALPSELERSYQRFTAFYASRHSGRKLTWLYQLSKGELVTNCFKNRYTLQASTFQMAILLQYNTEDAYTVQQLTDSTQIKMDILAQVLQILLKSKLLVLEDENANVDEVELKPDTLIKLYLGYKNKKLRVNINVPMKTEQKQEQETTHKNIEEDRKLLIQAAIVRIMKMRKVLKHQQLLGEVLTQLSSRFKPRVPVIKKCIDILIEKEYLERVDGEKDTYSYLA

Consider `COc1ccc2c(c1)CCCN2C(=O)CCl` [KB02], for which the inhibition at 500 µM amounted to 42% at Q8ND25 (setting [2]) and 35% on Q8NHG8 (setting [2]). The inhibition at 100 µM at Q9H0C5 (100 uM, read-out: KB02_100 uM_percent_inhibition) was found to be 9%.

On to `C=CC(=O)N(c1ccccc1)c1ccc(Br)cc1` [KB05], for which the inhibition at 100 µM on Q8ND25 (setting [3]) came to 9%; at Q8NHG8 (setting [3]) it was 9%; at Q7Z569 (read-out: KB05_100 uM_percent_inhibition), 33%; on Q9BSF8 (setting [3]), 27%. In addition, the figures for the “KB05_500 uM_percent_inhibition” value at Q9BSF8 (500 uM) and at Q9H0C5 (500 uM) were 53% and 36%, respectively. For the same compound, the inhibition at 500 µM on Q9BSF8 (setting [4]) is 37%; on Q9H0C5 (setting [4]) it was 56%. Also, the “KB05_100 uM_percent_inhibition” value in experiment [1] was 4%.

Take `O=C(CCl)Nc1cc(C(F)(F)F)cc(C(F)(F)F)c1` [KBO3]: the entries for the “KB03_100 uM_percent_inhibition” value (on Q7Z569 (100 uM); on Q9BSF8 (100 uM); in experiment [1]) were 10%, 29% and 31%, respectively.
